These results are taken from patent US9493448B2, “Cycloalkane derivatives” (Daiichi Sankyo Company, Limited, priority 2012, dated 2016).

pIC50: −log10 of the molar value.

The target in one experiment is hNav 1.7 (Homo sapiens (Human), UniProt Q15858). Nature of the experiment: Electrophysiological evaluation, automated patch clamp IonWorks Quattro (Population Patch Clamp mode). The class given is cell-based. Particulars: HEK293A cells stably expressing hNav 1.7/β1/β2; response to second depolarization pulse, pre-pulse potential set to V1/2; read-out: hNav1.7 IC50. In general terms: The patch-clamp technique gives a direct electrical read-out from membranes.
Sequence of hNav 1.7 (Q15858 whole entry): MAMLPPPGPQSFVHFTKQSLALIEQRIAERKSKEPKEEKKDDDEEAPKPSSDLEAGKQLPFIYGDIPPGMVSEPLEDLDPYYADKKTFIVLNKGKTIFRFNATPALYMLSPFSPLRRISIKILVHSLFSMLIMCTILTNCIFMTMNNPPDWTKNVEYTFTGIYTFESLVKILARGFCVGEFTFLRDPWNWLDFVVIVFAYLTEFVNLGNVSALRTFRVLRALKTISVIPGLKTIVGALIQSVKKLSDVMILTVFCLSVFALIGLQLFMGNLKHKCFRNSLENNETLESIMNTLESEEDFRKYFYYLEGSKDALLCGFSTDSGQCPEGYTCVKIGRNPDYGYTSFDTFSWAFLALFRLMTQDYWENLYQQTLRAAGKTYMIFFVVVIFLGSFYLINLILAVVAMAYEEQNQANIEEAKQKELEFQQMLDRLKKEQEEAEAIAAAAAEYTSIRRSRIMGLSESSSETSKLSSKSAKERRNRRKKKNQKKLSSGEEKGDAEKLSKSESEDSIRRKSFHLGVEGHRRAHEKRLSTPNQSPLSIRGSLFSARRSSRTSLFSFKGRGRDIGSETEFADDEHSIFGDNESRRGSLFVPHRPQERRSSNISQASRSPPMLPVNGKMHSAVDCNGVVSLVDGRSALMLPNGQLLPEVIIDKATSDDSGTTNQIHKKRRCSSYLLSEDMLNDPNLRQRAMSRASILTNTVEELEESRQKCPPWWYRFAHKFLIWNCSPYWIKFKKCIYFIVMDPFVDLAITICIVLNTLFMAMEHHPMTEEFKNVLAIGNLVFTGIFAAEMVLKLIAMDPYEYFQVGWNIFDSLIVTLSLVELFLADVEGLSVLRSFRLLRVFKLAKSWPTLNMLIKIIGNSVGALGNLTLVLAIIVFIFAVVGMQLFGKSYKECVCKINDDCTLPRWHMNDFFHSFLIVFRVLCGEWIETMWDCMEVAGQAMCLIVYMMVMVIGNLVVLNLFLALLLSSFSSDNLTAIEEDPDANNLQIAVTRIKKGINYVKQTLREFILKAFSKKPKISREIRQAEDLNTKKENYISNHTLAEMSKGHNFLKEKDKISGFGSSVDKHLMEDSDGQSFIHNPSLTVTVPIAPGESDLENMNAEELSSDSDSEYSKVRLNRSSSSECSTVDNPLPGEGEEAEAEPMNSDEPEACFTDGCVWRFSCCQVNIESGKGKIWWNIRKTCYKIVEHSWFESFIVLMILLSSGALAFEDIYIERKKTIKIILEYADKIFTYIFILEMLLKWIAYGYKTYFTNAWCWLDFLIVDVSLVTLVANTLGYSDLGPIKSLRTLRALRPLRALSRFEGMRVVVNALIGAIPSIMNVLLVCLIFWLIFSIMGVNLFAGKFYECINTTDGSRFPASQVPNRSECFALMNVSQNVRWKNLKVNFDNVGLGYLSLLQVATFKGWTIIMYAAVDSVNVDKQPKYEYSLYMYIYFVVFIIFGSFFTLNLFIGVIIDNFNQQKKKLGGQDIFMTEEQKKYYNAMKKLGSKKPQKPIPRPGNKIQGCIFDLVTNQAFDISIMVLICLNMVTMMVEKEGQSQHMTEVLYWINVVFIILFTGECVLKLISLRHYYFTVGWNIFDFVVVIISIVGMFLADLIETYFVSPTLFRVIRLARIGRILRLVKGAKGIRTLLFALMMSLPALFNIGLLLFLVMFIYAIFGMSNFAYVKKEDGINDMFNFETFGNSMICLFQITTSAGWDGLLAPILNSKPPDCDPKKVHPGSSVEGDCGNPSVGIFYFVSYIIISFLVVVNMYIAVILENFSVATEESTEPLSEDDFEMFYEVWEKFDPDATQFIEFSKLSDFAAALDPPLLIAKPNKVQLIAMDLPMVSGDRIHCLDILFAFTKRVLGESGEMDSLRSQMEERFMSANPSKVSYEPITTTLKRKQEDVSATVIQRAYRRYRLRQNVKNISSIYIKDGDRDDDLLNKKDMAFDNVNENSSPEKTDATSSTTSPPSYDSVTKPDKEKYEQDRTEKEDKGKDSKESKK
Sequence of hNav 1.7 (Q07699 19-218 partner): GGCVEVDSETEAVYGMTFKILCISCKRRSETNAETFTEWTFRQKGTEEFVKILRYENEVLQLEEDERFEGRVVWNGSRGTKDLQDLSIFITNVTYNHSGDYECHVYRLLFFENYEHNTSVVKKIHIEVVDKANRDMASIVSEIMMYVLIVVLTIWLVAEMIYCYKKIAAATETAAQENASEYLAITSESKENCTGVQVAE
Sequence of hNav 1.7 (O60939 30-215 partner): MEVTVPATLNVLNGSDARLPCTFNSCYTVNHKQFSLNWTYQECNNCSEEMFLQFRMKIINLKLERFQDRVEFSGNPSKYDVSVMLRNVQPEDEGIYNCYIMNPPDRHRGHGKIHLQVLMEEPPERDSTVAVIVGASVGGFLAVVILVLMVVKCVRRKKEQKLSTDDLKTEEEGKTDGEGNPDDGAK

In experiment [1] the test system is mice and rats affected by thermal hyperalgesia. Nature of the experiment: Thermal hyperalgesia assay.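 Also: measurement times set by the study director and not disclosed.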 Format: in vivo. The following applies: oral administration, constant dose, against the vehicle treatment group; latency to escape behaviors after thermal stimulation of hind paw.

A word on the pIC50: it is −log10 of the IC50, conventionally taken in molar units. Consider `Cc1cc(S(=O)(=O)Nc2ccncn2)c(F)cc1O[C@H]1CC(F)(F)CC[C@@H]1c1ccnn1C` [Example 137, 4-{[(1S,2R)-5,5-Difluoro-2-(1-methyl-1H-pyrazol-5-yl)cyclohexyl]oxy}-2-fluoro-5-methyl-N-(pyrimidin-4-yl)benzenesulfonamide], for which, at hNav 1.7, the pIC50 is 7.52. In experiment [1], the “Ratio of improving pain score (%)” value is “A (“A” when the rate was 61 to 100%)”.

Turning to `Cn1nccc1[C@@H]1CCC[C@H]1Oc1ccc(S(=O)(=O)Nc2ccncn2)c(F)c1` [Example 128, 2-Fluoro-4-{[(1R,2S)-2-(1-methyl-1H-pyrazol-5-yl)cyclopentyl]oxy}-N-(pyrimidin-4-yl)benzenesulfonamide], the pIC50 at hNav 1.7 is 4.04. Further, in experiment [1], the “Ratio of improving pain score (%)” value is recorded as “B (“B” when the rate was 31 to 60%)”.

With `CC(=O)Nc1n[nH]cc1[C@H]1CCCC[C@@H]1Oc1cc(F)c(S(=O)(=O)Nc2ccncn2)cc1C` (relative stereo) [Example 96, N-(4-{(1R*,2S*)-2-[5-fluoro-2-methyl-4-((pyrimidin-4-yl)sulfamoyl)phenoxy]cyclohexyl}-1H-pyrazol-3-yl)acetamide], at hNav 1.7, the pIC50 was 6.60. Also, the “Ratio of improving pain score (%)” value in experiment [1] is on record as “A (“A” when the rate was 61 to 100%)”.

For the compound `O=S(=O)(Nc1ccncn1)c1cc(Cl)c(O[C@H]2CCCC[C@@H]2c2ccn[nH]2)cc1F` [Example 158, 5-Chloro-2-fluoro-4-{[(1S,2R)-2-(1H-pyrazol-5-yl)cyclohexyl]oxy}-N-(pyrimidin-4-yl)benzenesulfonamide], the pIC50 at hNav 1.7 is 7.55. Besides, the “Ratio of improving pain score (%)” value in experiment [1] was “C (“C” when the rate was 0 to 30%)”.

Turning to `Cc1cc(S(=O)(=O)Nc2ccncn2)ccc1O[C@H]1CCCCC[C@@H]1c1ccnn1C` (relative stereo) [Example 57, 3-Methyl-4-{[(1S*,2R*)-2-(1-methyl-1H-pyrazol-5-yl)cycloheptyl]oxy}-N-(pyrimidin-4-yl)benzenesulfonamide], the negative-log IC50 (pIC50) at hNav 1.7 was 7.12. Further, the “Ratio of improving pain score (%)” value in experiment [1] is listed as “B (“B” when the rate was 31 to 60%)”.

As for `Cn1nccc1[C@H]1CC(F)(F)CC[C@@H]1Oc1cc(F)c(S(=O)(=O)Nc2ccncn2)cc1Cl` (relative stereo) [Example 131, 5-Chloro-4-{[(1S*,2R*)-4,4-difluoro-2-(1-methyl-1H-pyrazol-5-yl)cyclohexyl]oxy}-2-fluoro-N-(pyrimidin-4-yl)benzenesulfonamide], on hNav 1.7, the pIC50 is 7.23. Moreover, in experiment [1], the “Ratio of improving pain score (%)” value is “C (“C” when the rate was 0 to 30%)”.

With `Cc1cc(S(=O)(=O)Nc2ccncn2)c(F)cc1O[C@H]1CC(F)(F)C[C@@H]1c1ccnn1C` (relative stereo) [Example 133, 4-{[(1S*,2R*)-4,4-Difluoro-2-(1-methyl-1H-pyrazol-5-yl)cyclopentyl]oxy}-2-fluoro-5-methyl-N-(pyrimidin-4-yl)benzenesulfonamide], at hNav 1.7, the pIC50 was 7.24. In experiment [1], the “Ratio of improving pain score (%)” value is “A (“A” when the rate was 61 to 100%)”.

As for `[2H]c1nccc(NS(=O)(=O)c2ccc(O[C@H]3CCC[C@@H]3c3ccnn3CC)c(F)c2F)n1` (relative stereo) [Example 95, 4-{[(1S*,2R*)-2-(1-Ethyl-1H-pyrazol-5-yl)cyclopentyl]oxy}-2,3-difluoro-N-(2-^2H) (pyrimidin-4-yl)benzenesulfonamide], on hNav 1.7, the pIC50 is 6.77. Moreover, in experiment [1], the “Ratio of improving pain score (%)” value is listed as “C (“C” when the rate was 0 to 30%)”.

For `Nc1nnccc1[C@H]1CCCC[C@@H]1Oc1cc(F)c(S(=O)(=O)Nc2ccncn2)cc1F` (relative stereo) [Example 82, 4-{[(1S*,2R*)-2-(3-Aminopyridazin-4-yl)cyclohexyl]oxy}-2,5-difluoro-N-(pyrimidin-4-yl)benzenesulfonamide], on hNav 1.7, the pIC50 is 7.25. Besides, the “Ratio of improving pain score (%)” value in experiment [1] is “B (“B” when the rate was 31 to 60%)”.

For the compound `Cn1nccc1[C@H]1CCC(F)(F)C[C@@H]1Oc1cc(F)c(S(=O)(=O)Nc2nncs2)cc1Cl` (relative stereo) [Example 134, 5-Chloro-4-{[(1S*,2R*)-5,5-difluoro-2-(1-methyl-1H-pyrazol-5-yl)cyclohexyl]oxy}-2-fluoro-N-(1,3,4-thiadiazol-2-yl)benzenesulfonamide], on hNav 1.7, the pIC50 is 7.47. Further, the “Ratio of improving pain score (%)” value in experiment [1] was “B (“B” when the rate was 31 to 60%)”.

For the compound `Cn1nccc1[C@H]1CCC[C@@H]1Oc1ccc(S(=O)(=O)Nc2ccncn2)c(F)c1Cl` (relative stereo) [Example 80, 3-Chloro-2-fluoro-4-{[(1S*,2R*)-2-(1-methyl-1H-pyrazol-5-yl)cyclopentyl]oxy}-N-(pyrimidin-4-yl)benzenesulfonamide], the pIC50 at hNav 1.7 is 7.07. Further, the “Ratio of improving pain score (%)” value in experiment [1] was “C (“C” when the rate was 0 to 30%)”.

Take `Nc1n[nH]cc1[C@H]1CCCC[C@@H]1Oc1ccc(S(=O)(=O)Nc2ccncn2)c(F)c1Cl` (relative stereo) [Example 91, 4-{[(1S*,2R*)-2-(3-Amino-1H-pyrazol-4-yl)cyclohexyl]oxy}-3-chloro-2-fluoro-N-(pyrimidin-4-yl)benzenesulfonamide]: at hNav 1.7, the negative logarithm of the IC50 (pIC50) was 6.77. Also, the “Ratio of improving pain score (%)” value in experiment [1] is “A (“A” when the rate was 61 to 100%)”.

Regarding `CO[C@@H]1C[C@H](Oc2cc(F)c(S(=O)(=O)Nc3ccncn3)cc2F)[C@@H](c2ccnn2C)C1` (relative stereo) [Example 120, 2,5-Difluoro-4-{[(1S*,2R*,4S*)-4-methoxy-2-(1-methyl-1H-pyrazol-5-yl)cyclopentyl]oxy}-N-(pyrimidin-4-yl)benzenesulfonamide], the negative-log IC50 (pIC50) at hNav 1.7 is 6.57. For the same compound, the “Ratio of improving pain score (%)” value in experiment [1] is listed as “C (“C” when the rate was 0 to 30%)”.

In the case of `Cc1cc(S(=O)(=O)Nc2ccncn2)c(F)cc1O[C@H]1CCC[C@@H]1c1c[nH]nc1N` (relative stereo) [Example 85, 4-{[(1S*,2R*)-2-(3-Amino-1H-pyrazol-4-yl)cyclopentyl]oxy}-2-fluoro-5-methyl-N-(pyrimidin-4-yl)benzenesulfonamide], the negative logarithm of the IC50 (pIC50) on hNav 1.7 was 6.77. Also, the “Ratio of improving pain score (%)” value in experiment [1] is given as “B (“B” when the rate was 31 to 60%)”.

Turning to `Cc1c(O[C@H]2CCCC[C@@H]2c2c[nH]nc2N)ccc(S(=O)(=O)Nc2ccncn2)c1F` (relative stereo) [Example 73, 4-{[(1S*,2R*)-2-(3-Amino-1H-pyrazol-4-yl)cyclohexyl]oxy}-2-fluoro-3-methyl-N-(pyrimidin-4-yl)benzenesulfonamide], the pIC50 on hNav 1.7 is 7.00. Also, the “Ratio of improving pain score (%)” value in experiment [1] is on record as “A (“A” when the rate was 61 to 100%)”.

As to `Cn1nccc1[C@H]1CCC[C@@H]1Oc1cc(F)c(S(=O)(=O)Nc2nncs2)cc1Cl` (relative stereo) [Example 87, 5-Chloro-2-fluoro-4-{[(1S*,2R*)-2-(1-methyl-1H-pyrazol-5-yl)cyclopentyl]oxy}-N-(1,3,4-thiadiazol-2-yl)benzenesulfonamide], on hNav 1.7, the negative logarithm of the IC50 (pIC50) was 6.55. In experiment [1], the “Ratio of improving pain score (%)” value is listed as “B (“B” when the rate was 31 to 60%)”.

For `O=S(=O)(Nc1ccncn1)c1ccc(O[C@H]2CCCC[C@@H]2c2cn[nH]c2)c(F)c1F` (relative stereo) [Example 83, 2,3-Difluoro-4-{[(1S*,2R*)-2-(1H-pyrazol-4-yl)cyclohexyl]oxy}-N-(pyrimidin-4-yl)benzenesulfonamide], the pIC50 on hNav 1.7 was 6.19. The “Ratio of improving pain score (%)” value in experiment [1] is reported as “B (“B” when the rate was 31 to 60%)”.

For `CCn1nccc1[C@H]1CCC[C@@H]1Oc1ccc(S(=O)(=O)Nc2ccncn2)c(F)c1` (relative stereo) [Example 115, 4-{[(1S*,2R*)-2-(1-Ethyl-1H-pyrazol-5-yl)cyclopentyl]oxy}-2-fluoro-N-(pyrimidin-4-yl)benzenesulfonamide], on hNav 1.7, the pIC50 is 6.24. Besides, the “Ratio of improving pain score (%)” value in experiment [1] is listed as “A (“A” when the rate was 61 to 100%)”.

Consider `Cn1nccc1[C@H]1CCC[C@@H]1Oc1cc(F)c(S(=O)(=O)Nc2ccnc(F)n2)c(F)c1` (relative stereo) [Example 111, 2,6-Difluoro-N-(2-fluoropyrimidin-4-yl)-4-{[(1S*,2R*)-2-(1-methyl-1H-pyrazol-5-yl)cyclopentyl]oxy}benzenesulfonamide], for which, on hNav 1.7, the pIC50 is 7.52. The “Ratio of improving pain score (%)” value in experiment [1] was “A (“A” when the rate was 61 to 100%)”.

Regarding `Cn1nccc1[C@H]1CC(F)(F)C[C@@H]1Oc1ccc(S(=O)(=O)Nc2ccncn2)c(F)c1` (relative stereo) [Example 136, 4-{[(1S*,2R*)-4,4-Difluoro-2-(1-methyl-1H-pyrazol-5-yl)cyclopentyl]oxy}-2-fluoro-N-(pyrimidin-4-yl)benzenesulfonamide], the pIC50 on hNav 1.7 was 6.54. The “Ratio of improving pain score (%)” value in experiment [1] is “B (“B” when the rate was 31 to 60%)”.

As to `Cn1nccc1[C@H]1CCC[C@@H]1Oc1ccc(S(=O)(=O)Nc2ccnc(F)n2)c(F)c1` (relative stereo) [Example 114, 2-Fluoro-N-(2-fluoropyrimidin-4-yl)-4-{[(1S*,2R*)-2-(1-methyl-1H-pyrazol-5-yl)cyclopentyl]oxy}benzenesulfonamide], the pIC50 at hNav 1.7 is 7.11. For the same compound, the “Ratio of improving pain score (%)” value in experiment [1] is “B (“B” when the rate was 31 to 60%)”.

`Cn1nccc1[C@H]1CCC(F)(F)C[C@@H]1Oc1ccc(S(=O)(=O)Nc2ccncn2)c(F)c1F` (relative stereo) [Example 105, 4-{[(1S*,2R*)-5,5-Difluoro-2-(1-methyl-1H-pyrazol-5-yl)cyclohexyl]oxy}-2,3-difluoro-N-(pyrimidin-4-yl)benzenesulfonamide]: on hNav 1.7, the negative-log IC50 (pIC50) is 6.66. Also, the “Ratio of improving pain score (%)” value in experiment [1] is “A (“A” when the rate was 61 to 100%)”.

Take `Cn1nccc1[C@H]1CCCC[C@@H]1Oc1ccc(S(=O)(=O)Nc2ccncn2)cc1C#N` (relative stereo) [Example 56, 3-Cyano-4-{[(1S*,2R*)-2-(1-methyl-1H-pyrazol-5-yl)cyclohexyl]oxy}-N-(pyrimidin-4-yl)benzenesulfonamide]: on hNav 1.7, the negative logarithm of the IC50 (pIC50) is 6.60. In addition, in experiment [1], the “Ratio of improving pain score (%)” value is listed as “B (“B” when the rate was 31 to 60%)”.
